Columns and labels:
THP-1 [1] = assay: Inhibition of LPS-stimulated production of TNF-alpha, at the dose of 1 uM concentration; assay type: functional; details: for inhibition at 1 µM: Homo sapiens, THP-1
[2] = target: T1, Disintegrin and metalloproteinase domain-containing protein 17 (Homo sapiens, UniProt P78536); assay: In vitro inhibition of tumor necrosis factor-alpha converting enzyme
Collagenase 3 = Collagenase 3 (Homo sapiens, UniProt P45452)
Description: In vitro inhibition of Matrix metalloprotein 13

THP-1 [3] = assay: Inhibition of LPS-stimulated production of TNF-alpha at the dose of 3 uM concentration; assay type: functional; details: Homo sapiens
[4] = target: T1, Disintegrin and metalloproteinase domain-containing protein 17; assay: Inhibition of tumor necrosis factor-alpha converting enzyme; details: concentration not given here
Interstitial collagenase = target: T2, Interstitial collagenase (Homo sapiens, UniProt P03956); assay: In vitro inhibition of Matrix metalloprotein 1
T2 sequence (P03956 whole entry): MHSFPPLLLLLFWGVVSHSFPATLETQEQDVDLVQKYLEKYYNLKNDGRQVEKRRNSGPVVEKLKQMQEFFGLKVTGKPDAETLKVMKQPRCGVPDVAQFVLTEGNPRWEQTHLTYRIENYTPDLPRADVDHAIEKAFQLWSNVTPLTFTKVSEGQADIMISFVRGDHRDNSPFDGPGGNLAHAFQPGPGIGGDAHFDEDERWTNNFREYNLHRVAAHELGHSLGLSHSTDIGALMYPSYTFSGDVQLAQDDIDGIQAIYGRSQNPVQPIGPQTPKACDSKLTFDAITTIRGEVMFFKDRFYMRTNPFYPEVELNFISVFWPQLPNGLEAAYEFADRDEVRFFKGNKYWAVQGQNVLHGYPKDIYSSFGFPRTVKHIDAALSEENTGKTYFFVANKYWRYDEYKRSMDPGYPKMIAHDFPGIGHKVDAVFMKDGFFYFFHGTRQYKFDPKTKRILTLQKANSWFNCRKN

[5] = target: Matrix metalloproteinase-9 (Homo sapiens, UniProt P14780)
Description: In vitro inhibition of Matrix metalloprotein-9

[6] = target: T3, Interstitial collagenase (Homo sapiens) (UniProt P03956); assay: Inhibition of Matrix metalloprotein 1 at 10 uM
T3 sequence (whole entry): T2 sequence (P03956 whole entry)

Mus musculus [7] = assay: In vivo percent inhibition against LPS-stimulated production of TNF-alpha in a mouse at a dose of 50 mg/Kg p.o.; assay type: functional; details: po, read-out: Inhibition
Homo sapiens = organism: Homo sapiens; assay: Inhibitory concentration against LPS-stimulated TNF-alpha production in human whole blood; assay type: functional
[8] = Oral bioavailability in mouse at 10 mg/kg of the compound; assay type: ADME, organism-based; details: in vivo
Mus musculus [9] = assay: Compound was reproducibly active at reducing clinical severity scores expressed as efficacy in mouse p.o.; assay type: functional
[10] = Oral bioavailability in rat at 10 mg/kg of the compound; assay type: ADME, organism-based; details: in vivo
Mus musculus [11] = organism: Mus musculus; assay: Effective dose in mouse; assay type: functional
[12] = Oral bioavailability in dog at 10 mg/kg of the compound; assay type: ADME, organism-based, Canis lupus familiaris; details: in vivo
Mus musculus [13] = assay: Compound was reproducibly active at reducing clinical severity scores in mouse p.o.; assay type: functional
[14] = Oral bioavailability in monkey at 10 mg/kg of the compound; assay type: ADME, organism-based; details: cercopithecidae, in vivo

Chain of Matrix metalloproteinase-9 (P14780 whole entry): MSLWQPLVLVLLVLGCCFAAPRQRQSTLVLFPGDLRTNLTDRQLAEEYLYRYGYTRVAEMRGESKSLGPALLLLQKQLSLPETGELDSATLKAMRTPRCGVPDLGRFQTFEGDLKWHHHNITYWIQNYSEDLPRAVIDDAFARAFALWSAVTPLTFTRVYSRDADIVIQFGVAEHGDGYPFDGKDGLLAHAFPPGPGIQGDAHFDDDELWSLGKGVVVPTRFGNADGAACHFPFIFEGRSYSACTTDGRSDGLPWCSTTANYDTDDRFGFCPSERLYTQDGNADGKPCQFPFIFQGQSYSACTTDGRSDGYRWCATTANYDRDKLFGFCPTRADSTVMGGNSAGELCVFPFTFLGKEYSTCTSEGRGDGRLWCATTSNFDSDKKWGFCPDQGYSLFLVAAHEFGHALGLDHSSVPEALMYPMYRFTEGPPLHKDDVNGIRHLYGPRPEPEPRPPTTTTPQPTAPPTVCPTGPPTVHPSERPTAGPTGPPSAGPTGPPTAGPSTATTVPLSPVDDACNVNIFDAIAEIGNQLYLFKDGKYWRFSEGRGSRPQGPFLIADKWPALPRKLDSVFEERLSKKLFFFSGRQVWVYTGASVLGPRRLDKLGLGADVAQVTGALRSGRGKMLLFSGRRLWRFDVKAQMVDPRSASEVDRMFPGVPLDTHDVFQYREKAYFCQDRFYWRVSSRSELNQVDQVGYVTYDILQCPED
T1 sequence (P78536 whole entry, the tested form may be a part): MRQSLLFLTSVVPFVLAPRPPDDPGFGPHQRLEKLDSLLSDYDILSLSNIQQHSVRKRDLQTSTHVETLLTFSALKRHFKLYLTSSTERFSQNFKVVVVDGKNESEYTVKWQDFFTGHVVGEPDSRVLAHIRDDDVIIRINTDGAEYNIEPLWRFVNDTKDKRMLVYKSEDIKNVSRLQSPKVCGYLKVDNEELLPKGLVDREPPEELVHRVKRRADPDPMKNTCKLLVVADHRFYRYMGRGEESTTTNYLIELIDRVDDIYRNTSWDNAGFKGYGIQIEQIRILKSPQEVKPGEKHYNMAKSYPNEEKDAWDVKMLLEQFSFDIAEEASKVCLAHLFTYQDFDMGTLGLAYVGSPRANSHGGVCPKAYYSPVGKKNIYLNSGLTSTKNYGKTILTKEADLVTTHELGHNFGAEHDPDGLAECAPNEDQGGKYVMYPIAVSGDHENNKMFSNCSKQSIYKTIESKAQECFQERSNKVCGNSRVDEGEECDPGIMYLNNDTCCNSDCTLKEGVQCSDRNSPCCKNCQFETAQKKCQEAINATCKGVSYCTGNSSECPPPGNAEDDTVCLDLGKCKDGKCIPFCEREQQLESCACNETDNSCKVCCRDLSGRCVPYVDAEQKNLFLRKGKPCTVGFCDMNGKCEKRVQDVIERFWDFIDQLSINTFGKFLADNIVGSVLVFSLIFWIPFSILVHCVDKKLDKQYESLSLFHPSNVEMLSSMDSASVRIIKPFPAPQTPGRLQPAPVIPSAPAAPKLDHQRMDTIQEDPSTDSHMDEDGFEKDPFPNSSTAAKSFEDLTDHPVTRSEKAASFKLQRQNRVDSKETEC

Row | Structure (SMILES) | inhibition at 1 µM (THP-1 [1]) | IC50 [2] | IC50 (Collagenase 3) | IC50 (Interstitial collagenase) | IC50 [5] | also measured
1 | CC#CCOc1ccc(S(=O)(=O)N(C)CC(=O)NO)cc1 | 22% | 7 nM |  |  |  | 
2 | CC#CCOc1ccc(S(=O)(=O)N(CC(=O)NO)Cc2cccnc2)cc1 | 45% |  |  |  |  | 
3 | CC#CCOc1ccc(S(=O)(=O)N(C)C(CSCc2cccnc2)C(=O)NO)cc1 (stereo not given) | 80% |  | 5 nM |  |  | 
4 | CC#CCOc1ccc(S(=O)(=O)NCCC(=O)NO)cc1 |  |  |  |  |  | inhibition at 3 µM (THP-1 [3]): 0%
5 | CN(CC(=O)NO)S(=O)(=O)c1ccc(CCC#N)cc1 |  |  | 207 nM | > 10000 nM | 74 nM | inhibition [4]: 6%; inhibition at 3 µM (THP-1 [3]): 7%
6 | CC#CCOc1ccc(S(=O)(=O)NC(C)(C)C(=O)NO)cc1 | 9% |  |  |  |  | 
7 | C#CCNc1ccc(S(=O)(=O)N(C)CC(=O)NO)cc1 |  |  |  | ~10000 nM |  | 
8 | CC#CCOc1ccc(S(=O)(=O)NCC(=O)NO)cc1 | 15% | 5 nM |  |  |  | inhibition [6]: 47%
9 | CC#CCOc1ccc(S(=O)(=O)N[C@@H](C(=O)NO)C(C)(C)C)cc1 | 78% |  |  |  |  | inhibition in vivo at 50 mg/kg (Mus musculus [7]): > 75%
10 | CC#CCOc1ccc(S(=O)(=O)N(C)C(C(=O)NO)C(C)(C)SCc2cccnc2)cc1 (stereo not given) | 52% | 54 nM | 2 nM |  | 4 nM | 
11 | CC#CCOc1ccc(S(=O)(=O)N(C)[C@@H](C(=O)NO)C(C)C)cc1 | 79% | 15 nM | 38 nM | 259 nM |  | 
12 | CC#CCOc1ccc(S(=O)(=O)N[C@H](C)C(=O)NO)cc1 | 40% | 4 nM | 195 nM | 4030 nM | 796 nM | inhibition in vivo at 50 mg/kg (Mus musculus [7]): > 75%
13 | CC#CCOc1ccc(S(=O)(=O)N(C)CCC(=O)NO)cc1 |  |  |  |  |  | inhibition at 3 µM (THP-1 [3]): 9%
14 | CC#CCOc1ccc(S(=O)(=O)N[C@@H](C(=O)NO)C(C)O)cc1 (stereo not given in full) | 50% | 10 nM | 86 nM | 2470 nM | 777 nM | IC50 (Homo sapiens): 1000 nM; bioavailability [8]: 100%; Activity (Mus musculus [9]): 20 mg/kg; bioavailability [10]: 46%; ED50 (Mus musculus [11]): 3 mg/kg; bioavailability [12]: 75%; Activity (Mus musculus [13]): 10 mg/kg; bioavailability [14]: 17%
15 | CC#CCOc1ccc(S(=O)(=O)N(C)[C@@H](C(=O)NO)c2ccc(OCCNC)cc2)cc1 | 87% |  |  |  |  | inhibition in vivo at 50 mg/kg (Mus musculus [7]): > 75%
16 | CC#CCOc1ccc(S(=O)(=O)N[C@@H](C(=O)NO)C(C)C)cc1 | 58% | 10 nM | 18 nM | 2960 nM | 42 nM | 
17 | CC#CCOc1ccc(S(=O)(=O)NC(CSCc2cccnc2)C(=O)NO)cc1 (stereo not given) | 56% | 3 nM | 28 nM | 1910 nM | 160 nM | 
18 | CC#CCOc1ccc(S(=O)(=O)N(C)[C@H](C)C(=O)NO)cc1 |  | 5 nM | 28 nM | 330 nM | 68 nM | Inhibition (THP-1 [1]): 60%
19 | CC#CCOc1ccc(S(=O)(=O)N[C@@H](C(=O)NO)c2ccc(OCCNC)cc2)cc1 | 48% |  |  | 10000 nM |  | 
20 | CC#CCOc1ccc(S(=O)(=O)NC(C(=O)NO)C(C)(C)SCc2cccnc2)cc1 (stereo not given) | 49% | 6 nM | 8 nM | 476 nM | 130 nM | 

Reference: ChEMBL document CHEMBL1136171, “Acetylenic TACE inhibitors. Part 1. SAR of the acyclic sulfonamide hydroxamates” (Bioorg Med Chem Lett, 2003)
